The source made the active and inactive calls.
Assays:
[1] = target: Mu-type opioid receptor (Homo sapiens, UniProt P35372); type: functional, cell-based;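 note: U2OS cells with beta-arrestin recruitment to OPRM1 by beta-gal complementation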
[2] = target: 5-hydroxytryptamine receptor 2A (Mus musculus, UniProt P35363); type: functional, cell-based;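 note: CHO-K1 cells with tagged receptor and beta-arrestin; agonist potency measured as compound-induced activation of the receptor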
[3] = test system: BJ; assay: BJ-TERT fibroblast viability loss – cell-based, RAS-independent, luminescence, dose response (AID 1933); type: functional; conditions: Homo sapiens
[4] = A Cell Based Secondary Assay To Explore Cytotoxicity of Compounds that Sensitize Mycobacterium Tuberculosis to Beta-Lactam Antibiotics.; type: functional
[5] = test system: BJ; assay: cells; type: functional, cell-based; conditions: Homo sapiens
[6] = target: Luciferin 4-monooxygenase (Photinus pyralis, UniProt P08659); assay: inhibition of purified Photinus pyralis luciferase – biochemical, luminescence, dose response (AID 1891)
Sequence of Luciferin 4-monooxygenase (P08659 whole entry): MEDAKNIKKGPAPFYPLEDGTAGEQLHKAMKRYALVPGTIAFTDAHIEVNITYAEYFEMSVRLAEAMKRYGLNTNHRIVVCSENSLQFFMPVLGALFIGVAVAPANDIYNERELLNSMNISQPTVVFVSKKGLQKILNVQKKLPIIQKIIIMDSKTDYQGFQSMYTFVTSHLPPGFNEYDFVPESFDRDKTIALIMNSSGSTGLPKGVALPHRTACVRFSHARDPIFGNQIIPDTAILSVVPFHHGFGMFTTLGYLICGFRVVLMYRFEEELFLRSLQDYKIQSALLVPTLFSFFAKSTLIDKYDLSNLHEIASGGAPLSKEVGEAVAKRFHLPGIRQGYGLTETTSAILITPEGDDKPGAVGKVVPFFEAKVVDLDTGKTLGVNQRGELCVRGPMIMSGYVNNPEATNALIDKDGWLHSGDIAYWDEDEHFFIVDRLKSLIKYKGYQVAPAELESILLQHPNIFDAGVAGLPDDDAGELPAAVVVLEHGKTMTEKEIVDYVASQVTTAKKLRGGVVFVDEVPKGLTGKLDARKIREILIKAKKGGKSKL

[7] = Luminescence Cell-Based Dose Confirmation HTS to Identify Inhibitors of Platelet Dense Granule Release. [Related pubchem assays: 1663 (Primary HTS), 1678 (Summary of Project)]; type: functional
[8] = test system: BJ; assay: BJ-TERT-LT-ST fibroblast viability loss – cell-based, RAS-independent, luminescence, dose response (AID 1935); type: functional; conditions: Homo sapiens;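 note: BJ fibroblasts immortalized with TERT plus LT and ST oncogenes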
[9] = DRD fibroblast viability loss – cell-based, non-viral oncogenic, luminescence, dose response (AID 1934); type: functional; conditions: Homo sapiens
[10] = test system: BJ; assay: growth inhibition of engineered Ras-driven BJ cells – cell-based, alamar blue fluorescence, cherrypicked samples, dose response (AID 2631); type: functional; conditions: Homo sapiens;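 note: confirmatory dose-response assay in RAS-dependent BJ fibroblasts engineered with TERT, LT and ST, with cytotoxicity read by fluorescence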
[11] = test system: INS1; assay: INS-1E survival protection against cytokine death – cell-based, luminescence, retest, dose response (AID 449756); type: functional; conditions: Rattus norvegicus;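 note: cell death triggered by IL-1 beta plus TNF-alpha plus IFN-gamma mixture; protective hits raise ATP signal compared with cytokine alone wells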
[12] = blockers of HIV-1 envelope-mediated cell-cell fusion – cherry-pick, dose response (AID 652057); type: functional, cell-based
[13] = viability loss in CEM21 cells – cell-based, CellTiter-Glo luminescence, cherry-picked, cytotoxicity control for viral fusion inhibitor project, dose response (AID 652042); type: functional;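 note: potency for signal decrease meaning cytotoxicity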
[14] = off-target signal loss in HeLa-CEM21 co-culture – HeLa F-luc CTL cells, cherry-picked, counter-screen for HIV-1 Env fusion inhibitor project, dose response (AID 652040); type: functional, cell-based;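 note: potency for signal decrease marking cytotoxic or nonspecific inhibition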
[15] = HIV-1 AD8 envelope cell-cell fusion blockers – cherry-pick, dose response (AID 652062); type: functional, cell-based;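 note: luciferase signal from cell-cell fusion driven by HIV-1 clade B AD8 Env; potency is for inhibitors of fusion seen as a drop in luminescence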
[16] = viability of uninfected HEp-2 cells – cell-based, HTS, cytotoxicity control for RSV inhibitor project, dose response (AID 2410); type: functional; conditions: human respiratory syncytial virus
[17] = target: T1, Methionyl-tRNA synthetase, putative (Trypanosoma brucei brucei, UniProt Q38C91); type: functional, Trypanosoma brucei brucei strain 927/4 GUTat10.1
T1 sequence (Q38C91 whole entry): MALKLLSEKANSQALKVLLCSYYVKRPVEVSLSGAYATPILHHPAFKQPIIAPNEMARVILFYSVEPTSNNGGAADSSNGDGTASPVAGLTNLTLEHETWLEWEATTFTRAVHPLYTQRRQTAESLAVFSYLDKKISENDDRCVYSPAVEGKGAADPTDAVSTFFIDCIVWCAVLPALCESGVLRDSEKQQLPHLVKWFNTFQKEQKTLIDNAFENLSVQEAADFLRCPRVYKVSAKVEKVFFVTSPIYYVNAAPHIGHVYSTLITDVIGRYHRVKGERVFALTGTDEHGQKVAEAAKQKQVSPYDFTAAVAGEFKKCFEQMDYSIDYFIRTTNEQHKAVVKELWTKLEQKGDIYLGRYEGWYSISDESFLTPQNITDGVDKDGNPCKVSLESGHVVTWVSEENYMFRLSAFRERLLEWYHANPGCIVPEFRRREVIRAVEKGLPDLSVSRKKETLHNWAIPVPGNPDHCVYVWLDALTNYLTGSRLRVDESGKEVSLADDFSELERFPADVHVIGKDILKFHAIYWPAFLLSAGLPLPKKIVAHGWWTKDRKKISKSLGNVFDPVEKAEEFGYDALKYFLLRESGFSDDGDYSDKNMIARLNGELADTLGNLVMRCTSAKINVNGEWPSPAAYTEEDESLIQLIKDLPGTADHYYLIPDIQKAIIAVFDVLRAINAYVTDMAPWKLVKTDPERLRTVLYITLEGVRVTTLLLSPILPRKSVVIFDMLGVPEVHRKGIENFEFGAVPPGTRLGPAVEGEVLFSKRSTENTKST

[18] = Counterscreen for inhibitors of Trypanosoma brucei methionyl tRNA synthetase (MetRS): Luminescence-based cell-based high throughput dose response assay to identify compounds that are cytotoxic to Jurkat human T lymphocyte cells.; type: functional
[19] = target: T1, Methionyl-tRNA synthetase, putative; type: functional, Trypanosoma brucei brucei strain 927/4 GUTat10.1; remark: listed apart in the source
[20] = target: T2, Sentrin-specific protease 8 (Homo sapiens, UniProt Q96LD8); type: functional
T2 sequence (Q96LD8 whole entry): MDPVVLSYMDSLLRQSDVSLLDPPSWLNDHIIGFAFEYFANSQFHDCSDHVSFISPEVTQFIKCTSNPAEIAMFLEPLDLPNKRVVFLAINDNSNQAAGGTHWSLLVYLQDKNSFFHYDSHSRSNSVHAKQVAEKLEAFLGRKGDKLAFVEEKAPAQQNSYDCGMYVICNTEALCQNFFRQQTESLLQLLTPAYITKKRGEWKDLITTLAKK

[21] = target: T2, Sentrin-specific protease 8; type: functional; remark: listed apart in the source
[22] = target: T3, Caspase-3 (Homo sapiens, UniProt P42574); assay: Dose-response confirmation of uHTS inhibitor hits of Sentrin-Specific Protease 8 in a Caspase-3 Fluorescence assay.; type: functional
T3 sequence (P42574 whole entry): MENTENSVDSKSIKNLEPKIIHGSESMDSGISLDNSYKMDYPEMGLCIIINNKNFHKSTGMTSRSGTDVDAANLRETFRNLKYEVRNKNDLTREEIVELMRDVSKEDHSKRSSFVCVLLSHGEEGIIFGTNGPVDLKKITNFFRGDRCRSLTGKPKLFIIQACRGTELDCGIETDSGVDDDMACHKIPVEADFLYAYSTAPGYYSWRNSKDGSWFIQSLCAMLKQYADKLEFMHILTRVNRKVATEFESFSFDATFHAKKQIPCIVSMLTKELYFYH

[23] = target: SWI/SNF-related matrix-associated actin-dependent regulator of chromatin subfamily A member 2 (Homo sapiens, UniProt P51531); assay: Luminescence-based cell-based high throughput dose response assay to identify activators of the function of SWI/SNF related, matrix associated, actin dependent regulator of chromatin, subfamily a, member 2 (SMARCA2, BRM).; type: functional
Sequence of SWI/SNF-related matrix-associated actin-dependent regulator of chromatin subfamily A member 2 (P51531 whole entry): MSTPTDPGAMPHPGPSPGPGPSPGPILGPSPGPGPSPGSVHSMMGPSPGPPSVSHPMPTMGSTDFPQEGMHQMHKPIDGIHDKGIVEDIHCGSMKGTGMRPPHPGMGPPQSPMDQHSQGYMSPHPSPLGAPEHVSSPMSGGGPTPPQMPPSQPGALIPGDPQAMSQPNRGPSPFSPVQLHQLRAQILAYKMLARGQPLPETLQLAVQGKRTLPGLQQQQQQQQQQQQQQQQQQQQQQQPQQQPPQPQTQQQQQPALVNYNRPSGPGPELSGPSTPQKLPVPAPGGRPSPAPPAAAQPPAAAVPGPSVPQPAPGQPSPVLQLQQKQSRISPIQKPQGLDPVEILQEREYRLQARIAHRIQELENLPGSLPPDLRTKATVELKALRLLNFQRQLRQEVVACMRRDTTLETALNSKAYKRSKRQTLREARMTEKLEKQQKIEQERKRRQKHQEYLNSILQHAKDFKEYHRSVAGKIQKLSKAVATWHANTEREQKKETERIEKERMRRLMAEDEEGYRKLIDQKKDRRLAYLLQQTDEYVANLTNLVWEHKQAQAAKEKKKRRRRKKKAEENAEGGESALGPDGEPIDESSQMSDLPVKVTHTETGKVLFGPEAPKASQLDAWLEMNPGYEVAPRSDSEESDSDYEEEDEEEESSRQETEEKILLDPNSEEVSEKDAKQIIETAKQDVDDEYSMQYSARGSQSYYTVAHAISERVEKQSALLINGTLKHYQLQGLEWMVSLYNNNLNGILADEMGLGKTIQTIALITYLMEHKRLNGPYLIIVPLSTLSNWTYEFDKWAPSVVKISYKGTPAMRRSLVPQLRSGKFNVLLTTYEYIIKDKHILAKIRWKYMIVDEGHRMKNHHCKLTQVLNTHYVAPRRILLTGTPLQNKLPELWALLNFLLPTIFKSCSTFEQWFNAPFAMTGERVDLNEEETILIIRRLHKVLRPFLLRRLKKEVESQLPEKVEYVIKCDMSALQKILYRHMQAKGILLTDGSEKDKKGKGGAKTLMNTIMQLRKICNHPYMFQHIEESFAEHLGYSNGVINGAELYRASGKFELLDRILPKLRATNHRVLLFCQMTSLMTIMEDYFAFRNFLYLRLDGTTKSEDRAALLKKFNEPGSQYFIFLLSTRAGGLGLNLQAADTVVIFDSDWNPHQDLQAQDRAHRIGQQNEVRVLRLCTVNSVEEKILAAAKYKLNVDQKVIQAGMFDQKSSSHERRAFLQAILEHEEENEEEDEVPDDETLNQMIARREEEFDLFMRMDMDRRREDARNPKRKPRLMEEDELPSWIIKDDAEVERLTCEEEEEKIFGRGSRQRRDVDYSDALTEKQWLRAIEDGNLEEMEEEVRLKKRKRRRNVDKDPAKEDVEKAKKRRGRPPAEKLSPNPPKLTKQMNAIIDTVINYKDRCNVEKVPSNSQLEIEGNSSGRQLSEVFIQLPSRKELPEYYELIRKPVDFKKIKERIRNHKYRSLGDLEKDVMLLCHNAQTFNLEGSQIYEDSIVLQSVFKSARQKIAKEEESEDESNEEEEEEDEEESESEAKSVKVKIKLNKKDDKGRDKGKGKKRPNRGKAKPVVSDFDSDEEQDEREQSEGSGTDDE

[24] = Counterscreen for activators of the function of SWI/SNF related, matrix associated, actin dependent regulator of chromatin, subfamily a, member 2 (SMARCA2, BRM): Luminescence-based cell-based high throughput dose response assay to identify non-selective compounds using the VP16 reporter assay.; type: functional
[25] = target: T4, Sentrin-specific protease 1 (Homo sapiens, UniProt Q9P0U3); assay: SENP1 catalytic domain blockers, concentration series – biochemical, kinetic FRET, dose response (AID 651697); type: functional; conditions: read-out: IC50_Mean
T4 sequence (Q9P0U3 whole entry): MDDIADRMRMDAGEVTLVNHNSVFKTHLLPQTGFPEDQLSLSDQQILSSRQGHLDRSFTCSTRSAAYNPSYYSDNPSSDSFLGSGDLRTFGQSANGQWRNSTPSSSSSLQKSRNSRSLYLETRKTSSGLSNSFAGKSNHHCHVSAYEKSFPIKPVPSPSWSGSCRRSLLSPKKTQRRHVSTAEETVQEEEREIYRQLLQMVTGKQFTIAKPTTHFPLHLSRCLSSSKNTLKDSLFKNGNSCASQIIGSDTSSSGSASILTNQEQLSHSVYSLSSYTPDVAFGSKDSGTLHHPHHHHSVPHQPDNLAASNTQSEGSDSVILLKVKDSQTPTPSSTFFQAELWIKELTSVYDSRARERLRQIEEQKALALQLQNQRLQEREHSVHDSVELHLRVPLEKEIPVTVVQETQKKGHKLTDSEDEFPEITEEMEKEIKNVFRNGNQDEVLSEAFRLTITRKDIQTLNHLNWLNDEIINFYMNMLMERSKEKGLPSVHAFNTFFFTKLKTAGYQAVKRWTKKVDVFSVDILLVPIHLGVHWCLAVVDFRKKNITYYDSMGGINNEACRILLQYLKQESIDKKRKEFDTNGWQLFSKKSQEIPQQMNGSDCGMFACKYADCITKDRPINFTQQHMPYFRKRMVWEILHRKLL

[26] = target: T5, Long-chain-fatty-acid--AMP ligase FadD28 (Mycobacterium tuberculosis, UniProt P9WQ59); assay: Fluorescence polarization aasay to screen for inhibitors that compete for the binding of FadD28 to a bisubstrate Measured in Biochemical System Using Plate Reader - 2147-01_Inhibitor_Dose_CherryPick_Activity.; type: functional, Mycobacterium tuberculosis H37Rv
T5 sequence (P9WQ59 whole entry): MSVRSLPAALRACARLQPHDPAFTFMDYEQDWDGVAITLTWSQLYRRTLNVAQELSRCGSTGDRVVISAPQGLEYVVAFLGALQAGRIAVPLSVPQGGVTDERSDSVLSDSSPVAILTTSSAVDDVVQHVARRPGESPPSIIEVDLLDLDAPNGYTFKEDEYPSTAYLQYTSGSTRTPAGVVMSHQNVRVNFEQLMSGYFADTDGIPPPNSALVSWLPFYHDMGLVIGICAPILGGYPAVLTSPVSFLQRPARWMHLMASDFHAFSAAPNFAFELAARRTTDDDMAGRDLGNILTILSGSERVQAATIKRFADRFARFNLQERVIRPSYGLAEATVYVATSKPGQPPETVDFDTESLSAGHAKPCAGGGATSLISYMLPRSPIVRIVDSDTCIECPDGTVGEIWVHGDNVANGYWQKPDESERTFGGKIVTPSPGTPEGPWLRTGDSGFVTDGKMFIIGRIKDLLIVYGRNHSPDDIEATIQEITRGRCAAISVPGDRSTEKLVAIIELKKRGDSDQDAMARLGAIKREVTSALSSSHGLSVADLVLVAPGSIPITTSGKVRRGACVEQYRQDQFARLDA

[27] = target: T4, Sentrin-specific protease 1; assay: Dose response confirmation of small molecule inhibitors of the catalytic domain of the SUMO protease, SENP1 in a FRET assay.; type: functional; conditions: read-out: IC50_Mean
[28] = target: T6, Small ubiquitin-related modifier 1 (Homo sapiens, UniProt P63165); assay: SUMO1 protein interaction blockers, potency – biochemical, fluorescence polarization, uHTS hits, dose response (AID 624382); type: functional; conditions: read-out: IC50_Mean
T6 sequence (P63165 whole entry): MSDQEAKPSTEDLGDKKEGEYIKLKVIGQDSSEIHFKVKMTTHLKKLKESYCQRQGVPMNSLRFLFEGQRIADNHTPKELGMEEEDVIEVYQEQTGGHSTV

[29] = target: T6, Small ubiquitin-related modifier 1; assay: SUMO1 protein-protein binding blockers, potency – biochemical, FRET, dose response (AID 624383); type: functional; conditions: read-out: IC50_Mean
[30] = target: Hepatocyte nuclear factor 4-alpha (Homo sapiens, UniProt P41235); type: functional, cell-based;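 note: biochemical luminescence-based dose-response counterscreen measuring inhibition of HNF4 dimerization, run alongside a screen for blockers of ABHD5–perilipin-5 interaction; split luciferase complementation of HNF4 fusion proteins in cell lysate measuring dimerization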
Sequence of Hepatocyte nuclear factor 4-alpha (P41235 whole entry, the tested form may be a part): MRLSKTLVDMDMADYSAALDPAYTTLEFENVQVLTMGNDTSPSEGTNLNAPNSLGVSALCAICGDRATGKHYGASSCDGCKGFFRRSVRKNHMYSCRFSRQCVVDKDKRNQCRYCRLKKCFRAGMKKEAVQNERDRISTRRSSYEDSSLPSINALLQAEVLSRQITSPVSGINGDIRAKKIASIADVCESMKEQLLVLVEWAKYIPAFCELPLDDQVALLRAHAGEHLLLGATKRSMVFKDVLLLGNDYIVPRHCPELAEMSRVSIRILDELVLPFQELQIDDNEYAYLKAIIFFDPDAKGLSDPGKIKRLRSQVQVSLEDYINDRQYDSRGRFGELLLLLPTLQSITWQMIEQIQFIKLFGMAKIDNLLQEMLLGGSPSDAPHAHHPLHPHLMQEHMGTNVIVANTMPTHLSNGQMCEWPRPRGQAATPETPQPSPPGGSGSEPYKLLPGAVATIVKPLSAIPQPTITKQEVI

[31] = cytotoxicity in HEK293 background cells – cell-based, dry powder, set 2, counter-screen for EBV LMP1 inhibitor project, dose response (AID 624374); type: functional
[32] = test system: Cryptococcus neoformans; assay: PubChem AID 686997; type: functional, organism-based; conditions: Cryptococcus neoformans
[33] = test system: HeLa; assay: viability loss in HeLa cells – cell-based, ATP luminescence, cherry-pick samples, cytotoxicity control, dose response (AID 687004); type: functional; conditions: Homo sapiens
[34] = test system: Cryptococcus neoformans; assay: Cryptococcus growth inhibition by alamar blue – cell lysis, cherry-picks, replicate tests, mechanism study for C. neoformans antifungal project, dose response (AID 686999); type: functional, organism-based
[35] = target: Paired box protein Pax-8 (Homo sapiens, UniProt Q06710); assay: PAX8 transcriptional activity inhibition in RMG-I – RMG-I cells, luciferase, cherry-pick, dose response (AID 687027); type: functional, cell-based;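 note: luciferase reporter driven by Pax8 target thyroperoxidase promoter measured by SteadyGlo luminescence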
Sequence of Paired box protein Pax-8 (Q06710 whole entry): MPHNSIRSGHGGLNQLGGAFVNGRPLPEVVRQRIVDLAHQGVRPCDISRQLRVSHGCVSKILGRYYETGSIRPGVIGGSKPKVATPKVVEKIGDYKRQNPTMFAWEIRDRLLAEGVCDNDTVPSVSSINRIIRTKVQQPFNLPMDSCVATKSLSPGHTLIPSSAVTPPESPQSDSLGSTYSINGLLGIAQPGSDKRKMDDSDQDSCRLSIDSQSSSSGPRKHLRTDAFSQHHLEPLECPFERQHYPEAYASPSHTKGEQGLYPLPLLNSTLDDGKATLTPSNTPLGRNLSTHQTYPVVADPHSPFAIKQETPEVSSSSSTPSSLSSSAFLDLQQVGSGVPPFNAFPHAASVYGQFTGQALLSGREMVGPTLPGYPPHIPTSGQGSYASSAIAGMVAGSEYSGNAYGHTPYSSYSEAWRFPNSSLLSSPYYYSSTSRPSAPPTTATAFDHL

Sequence of Mu-type opioid receptor (P35372 whole entry): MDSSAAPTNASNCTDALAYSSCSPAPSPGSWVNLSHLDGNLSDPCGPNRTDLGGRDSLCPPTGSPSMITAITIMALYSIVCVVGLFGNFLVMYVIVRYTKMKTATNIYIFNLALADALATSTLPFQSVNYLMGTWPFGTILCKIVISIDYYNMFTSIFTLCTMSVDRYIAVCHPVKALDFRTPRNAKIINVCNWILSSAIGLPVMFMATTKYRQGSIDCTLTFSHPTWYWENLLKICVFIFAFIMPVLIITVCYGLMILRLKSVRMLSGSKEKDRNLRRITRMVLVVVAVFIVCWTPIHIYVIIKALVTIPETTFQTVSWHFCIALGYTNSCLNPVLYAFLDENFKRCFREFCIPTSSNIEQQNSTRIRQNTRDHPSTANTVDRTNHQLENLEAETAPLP
Sequence of 5-hydroxytryptamine receptor 2A (P35363 whole entry): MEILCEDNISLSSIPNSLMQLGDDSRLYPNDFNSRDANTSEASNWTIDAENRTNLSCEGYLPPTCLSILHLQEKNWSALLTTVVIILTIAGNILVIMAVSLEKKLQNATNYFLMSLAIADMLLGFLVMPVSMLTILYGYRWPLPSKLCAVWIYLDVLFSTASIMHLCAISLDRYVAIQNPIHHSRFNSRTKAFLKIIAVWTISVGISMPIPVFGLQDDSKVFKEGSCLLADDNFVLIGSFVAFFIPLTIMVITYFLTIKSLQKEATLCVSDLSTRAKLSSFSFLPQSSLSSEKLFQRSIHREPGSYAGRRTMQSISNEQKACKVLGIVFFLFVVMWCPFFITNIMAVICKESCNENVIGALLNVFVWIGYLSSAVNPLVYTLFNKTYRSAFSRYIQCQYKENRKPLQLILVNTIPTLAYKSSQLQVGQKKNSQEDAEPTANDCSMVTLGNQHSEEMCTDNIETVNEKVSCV

SMILES: Cc1cccc(CN2CCN(c3ncccn3)CC2)c1
- EC50 [1]: 92.5 µM (inactive)
- EC50 [2]: 182 nM (active)

SMILES: O=C(Nc1nc2ccccc2[nH]1)c1ccccc1F
- EC50 [3]: 2.44 µM (active)
- CC50 [4]: 8.56 µM (active)
- EC50 [5]: 2.23 µM (active)
- EC50 [6]: 1.19 µM (active)
- EC50 [7]: 1.13 µM (active)
- EC50 [8]: 6.85 µM (inconclusive)
- EC50 [9]: 1.86 µM (active)
- EC50 [10]: > 133 µM (inactive)
- AC50 [11]: 3.06 µM (active)
- AC50 [12]: 3.82 µM (active)
- AC50 [13]: 5.17 µM (active)
- AC50 [14]: 6.83 µM (active)
- AC50 [15]: 6.17 µM (active)

SMILES: O=C(NCc1nc2ccccc2[nH]1)C1=C[C@H](c2ccc3c(c2)OCO3)C[C@H](OCc2ccc(CO)cc2)O1
- CC50 [16]: > 50 µM (active)
- IC50 [17]: 8.12 µM (active)
- IC50 [18]: 83.3 µM (inactive)
- IC50 [19]: 2.79 µM (active)

SMILES: O=C1/C(=C/NCCc2ccccc2)c2ccccc2C(=O)N1Cc1ccccc1
- IC50 [20]: 4.54 µM (active)
- IC50 [21]: 10.9 µM (active)
- IC50 [22]: 83.2 µM (inactive)

SMILES: O=C(c1n[nH]cc1-c1cccc(Br)c1)C1CO1 (stereo not given)
- EC50 [23]: > 91.2 µM (inactive)
- EC50 [24]: > 91.2 µM (inactive)

SMILES: COc1cc(/C=C2\CCCc3c2nc2ccccc2c3C(=O)O)cc(Br)c1O
- IC50 [25]: 3.84 µM (active)
- AC50 [26]: 63.8 µM (active)
- IC50 [27]: 2.85 µM (active)

SMILES: CCn1c(SCC(=O)NC(=O)NCc2ccco2)nc2sc(C)c(C)c2c1=O
- IC50 [28]: > 66.6 µM (inactive)
- IC50 [29]: 21.9 µM (inactive)

SMILES: COc1cccc(-c2cnc3c(NC=O)cc(-c4ccc(N5CCN(C)CC5)cc4)cn23)c1
- EC50 [23]: > 10.1 µM (inactive)
- EC50 [24]: > 91.2 µM (inactive)

SMILES: O=C(NC1CCCCC1)C(c1ccnc2ccccc12)N1CCc2ccccc2C1 (stereo not given)
- IC50 [20]: 17.5 µM (active)
- IC50 [21]: 2.31 µM (active)
- IC50 [22]: 9.26 µM (active)

SMILES: O=C(NCc1ccccc1)C(c1cc2ccccc2o1)n1c(=O)c(-c2ccco2)nc2ccccc21 (stereo not given)
- IC50 [30]: 3.07 µM (active)

SMILES: O=C(Cc1ccccn1)NCC[C@@H]1CC[C@H](NC(=O)Nc2ccc(Cl)cc2)[C@H](CO)O1
- AbsAC35 [31]: 154.48 µM

SMILES: CC[C@H](C)[C@@H]1NC(=O)CNC(=O)c2csc(n2)[C@H](C(C)(C)O)OC(=O)C(C)(C)[C@H](CCCC(C)(Cl)Cl)OC(=O)c2csc1n2 [LYNGBYABELLIN A]
- AC50 [32]: 2.72 µM (active)
- AC50 [33]: < 195 nM (active)
- AC50 [34]: 2.1 µM (active)
- AC50 [35]: < 260 nM (active)
